Laboratory results taken from paper PMC5895798, “Allosteric regulation alters carrier domain translocation in pyruvate carboxylase” (Nature Communications, 2018).
Read-outs that look alike come from different tables or passages of the source.

Experiments:
Type in all cases: biochemical
RePC [1] = target: T1, RePC (Rhizobium etli, UniProt Q2K340); assay: coupled malate dehydrogenase assay of pyruvate carboxylation, […] nm; conditions: hybrid tetramer population (hybrid A) of two co-expressed domain-inactivated mutants; no acetyl CoA; 25 mM NaHCO3, 2.5 mM MgATP, 12 mM pyruvate, pH 7.8, 25 °C; allosteric; read-out: + 0 mM acetyl coenzyme A / Ki
T1 construct: gene pyc; full length, N-terminal (His)9 tag, pET-17b, E. coli BL21(DE3) with BirA (biotinylated), 126 kDa subunit, homotetramer

RePC [2] = target: T1, RePC; assay: as above; conditions: read-out: + 0 mM acetyl coenzyme A / Ki
AnPC [3] = target: T2, AnPC (Aspergillus nidulans, UniProt Q5B4R8); assay: as above; conditions: read-out: + 0 mM acetyl coenzyme A / Ki
T2 construct: gene ANIA_04462; full length, N-terminal (His)9 tag, pET-17b, E. coli BL21(DE3) with BirA (biotinylated), 130 kDa subunit, tetramer
T2 sequence (Q5B4R8 1-1196): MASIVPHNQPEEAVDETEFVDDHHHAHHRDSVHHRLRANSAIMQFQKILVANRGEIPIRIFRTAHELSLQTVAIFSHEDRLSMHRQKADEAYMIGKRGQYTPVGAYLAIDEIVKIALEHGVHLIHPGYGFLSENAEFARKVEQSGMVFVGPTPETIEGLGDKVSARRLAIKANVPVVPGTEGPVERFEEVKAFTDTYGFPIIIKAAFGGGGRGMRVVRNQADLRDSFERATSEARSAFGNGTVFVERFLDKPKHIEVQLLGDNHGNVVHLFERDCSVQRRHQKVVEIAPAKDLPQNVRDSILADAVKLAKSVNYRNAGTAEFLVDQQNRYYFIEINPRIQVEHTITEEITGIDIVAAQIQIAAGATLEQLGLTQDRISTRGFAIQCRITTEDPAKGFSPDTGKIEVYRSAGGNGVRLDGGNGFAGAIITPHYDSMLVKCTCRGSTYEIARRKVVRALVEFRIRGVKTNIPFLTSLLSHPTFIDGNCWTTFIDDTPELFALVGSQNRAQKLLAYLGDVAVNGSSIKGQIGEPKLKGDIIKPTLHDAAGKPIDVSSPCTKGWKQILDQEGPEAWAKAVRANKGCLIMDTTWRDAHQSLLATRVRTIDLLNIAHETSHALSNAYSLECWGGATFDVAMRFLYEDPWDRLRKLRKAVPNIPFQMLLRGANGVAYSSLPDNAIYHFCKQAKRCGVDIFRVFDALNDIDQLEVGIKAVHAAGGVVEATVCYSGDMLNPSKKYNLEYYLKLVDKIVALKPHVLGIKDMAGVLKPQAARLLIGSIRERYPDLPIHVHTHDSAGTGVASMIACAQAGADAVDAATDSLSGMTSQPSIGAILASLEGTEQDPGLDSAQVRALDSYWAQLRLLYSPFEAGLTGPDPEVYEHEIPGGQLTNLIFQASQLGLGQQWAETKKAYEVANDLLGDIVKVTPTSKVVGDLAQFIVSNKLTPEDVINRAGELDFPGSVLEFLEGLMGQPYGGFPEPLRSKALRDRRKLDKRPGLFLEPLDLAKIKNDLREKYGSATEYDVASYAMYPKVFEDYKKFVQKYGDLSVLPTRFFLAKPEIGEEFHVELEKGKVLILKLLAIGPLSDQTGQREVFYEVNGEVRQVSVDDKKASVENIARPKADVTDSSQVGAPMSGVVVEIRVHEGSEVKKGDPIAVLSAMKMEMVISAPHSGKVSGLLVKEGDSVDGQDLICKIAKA

AnPC [4] = target: T2, AnPC; assay: shift of L-aspartate Ki in coupled assay; conditions: 0.1 mM acetyl CoA; competes with L-aspartate, no activation; pH 7.8, 25 °C

| Ki (RePC [1]) [mM] | Ki (RePC [2]) [mM] | Ki (AnPC [3]) [mM] | SMILES | shift of L-aspartate Ki in coupled assay (AnPC [4]) |
| --- | --- | --- | --- | --- |
| 6.2 ± 0.5 | 4.7 ± 0.7 | 2.6 ± 0.1 | N[C@@H](CC(=O)O)C(=O)O [L-aspartate] |  |
|  |  |  | CC(=O)SCCNC(=O)CCNC(=O)[C@H](O)C(C)(C)COP(=O)(O)OP(=O)(O)OC[C@H]1O[C@@H](n2cnc3c(N)ncnc32)[C@H](O)[C@@H]1OP(=O)(O)O [acetyl CoA] | This confirms that acetyl CoA does, indeed, bind to AnPC |
